Measured values: patent publication US6613761B1, “Benzoxazepine compounds, their production and use” (Takeda Chemical Industries, Ltd., priority 1995, dated 2003)
pIC50: −log10 of the molar value. Structures can show the parent of a compound that is named as a salt.

Columns and labels:
squalene synthetase = target: T1, squalene synthetase (Homo sapiens, UniProt P37268); assay: Squalene synthetase inhibitory activity (human-derived enzyme prepared from HepG2 cells); assay type: biochemical; conditions: [1-3H] farnesyl pyrophosphate, 37° C., 45 minutes, read-out: Inhibitory Activity (IC50, 10^−9 M)
T1 construct: This suspension was used as the enzyme solution; endogenous in cells; host or cells: HepG2 human hepatic carcinoma cells; membrane fraction (105000×g sediment) of the sonicate
T1 sequence (P37268 1-417): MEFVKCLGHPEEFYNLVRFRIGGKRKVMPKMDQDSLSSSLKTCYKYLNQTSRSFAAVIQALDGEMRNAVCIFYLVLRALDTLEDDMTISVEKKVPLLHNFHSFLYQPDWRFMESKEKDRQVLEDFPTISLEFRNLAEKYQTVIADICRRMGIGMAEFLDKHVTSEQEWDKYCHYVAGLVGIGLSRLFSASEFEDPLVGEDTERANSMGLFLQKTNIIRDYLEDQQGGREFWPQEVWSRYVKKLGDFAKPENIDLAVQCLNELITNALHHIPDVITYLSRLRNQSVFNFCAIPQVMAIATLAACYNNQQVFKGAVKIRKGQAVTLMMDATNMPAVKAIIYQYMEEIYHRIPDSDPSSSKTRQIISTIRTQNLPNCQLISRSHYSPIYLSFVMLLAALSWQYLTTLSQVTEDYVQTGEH
Experimental: The squalene synthetase inhibitory activity was assayed as follows with the enzyme solutions prepared in accordance with the method described below.
More specifically, an enzyme solution (protein content 0.8 μg) prepared in accordance with the method described below was added to a solution (total volume 50 μl)) containing 5 μM [1-^3H] farnesyl pyrophosphate (specific activity 25 μCi/mole), 1 mM NADPH (nicotinamide adenine dinucleotide phosphate of reduced type), 5 mM MgCl2, 6 mM glutathione, a 100 mM buffer solution of potassium phosphate (pH 7.4) and a test drug (used as an aqueous solution or a DMSO solution), then the reaction was allowed to proceed at 37° C. for 45 minutes. To the reaction mixture was added 150 μl of a mixture of chloroform and methanol (1:2) to suspend the reaction, followed by adding 50 Al of chloroform and 50 μl of a 3N solution of sodium hydroxide. 50 μl of the chloroform layer (lower layer) containing the reaction mixture having squalene as the principal component and 3 ml of toluene-based liquid scintillator were mixed, and its radioactivity was determined by means of a liquid scintillation counter.
The squalene synthetase inhibitory activity was expressed in terms of the concentration inhibiting by 50% the radioactivity taken into the chloroform layer (IC50, molar concentration (M)), as shown in Table 7. Preparation of human-derived enzyme
Human hepatic carcinoma cells HepG2 (about 1×10^9 cells) obtained by incubation on a Dulbecco-modified Eagle's medium (37° C. in the presence of 5% CO2) containing 10% fetal bovine serum were suspended in 10 ml of an ice-cooled buffer solution (100 mM potassium phosphate buffer (pH 7.4), 30 mM nicotinamide and 2.5 mM MgCl2]. The cells were crashed by means of ultrasonication (for 30 seconds, twice). The sonicate thus obtained was subjected to centrifugation for 20 minutes (4° C.) with 10000×g. The supernatant layer was subjected to further centrifugation for 90 minutes (4° C.) with 105000×g. The sediment was then suspended in an ice-cooled 100 mM potassium phosphate buffer (pH 7.4), which was again subjected to centrifugation for 90 minutes (4° C.) with 105000×g. This fraction was suspended in an ice-cooled 100 mM potassium phosphate buffer solution (pH 7.4) (about 4 mg/ml protein concentration). This suspension was used as the enzyme solution.

| Compound | melting point [°C] | pIC50 (squalene synthetase) |
| --- | --- | --- |
| CCC(C)[C@H](NC(=O)C[C@H]1O[C@H](c2cccc(OC)c2OC)c2cc(Cl)ccc2N(CC(C)(C)C)C1=O)C(=O)O (some centres unmarked) [Compound 4-8] | 137 to 139 | 7.96 |
| COc1cccc([C@H]2O[C@H](CC(=O)NCCC(=O)O)C(=O)N(CC(C)(C)C)c3ccc(Cl)cc32)c1OC [Compound 4-21] | 165 to 167 | 7.96 |
| COc1cccc([C@H]2O[C@H](CC(=O)NCP(=O)(O)O)C(=O)N(CC(C)(C)C)c3ccc(Cl)cc32)c1OC [Compound 22, (3R,5S)-N-phosphonomethyl-7-chloro-5-(2,3-dimethoxyphenyl)-1-neopentyl-2-oxo-1,2,3,5-tetrahydro-4,1-benzoxazepine-3-acetamide] | 152 to 155 | 8.07 |
| COc1cccc([C@H]2O[C@H](CC(=O)NS(=O)(=O)c3ccccc3C)C(=O)N(CC(C)(C)C)c3ccc(Cl)cc32)c1OC [Compound 17-1] |  | 7.89 |
| COc1cccc([C@H]2O[C@H](CC(=O)N3CCC(Cc4nnn[nH]4)CC3)C(=O)N(CC(C)(C)C)c3ccc(Cl)cc32)c1OC [Compound 24, 5-[[N-[(3R,5S)-7-chloro-5-(2,3-dimethoxyphenyl)-1-neopentyl-2-oxo-1,2,3,5-tetrahydro-4,1-benzoxazepine-3-acetyl]piperidin-4-yl]methyl]1H(or 3H)-tetrazole] | 168 to 170 | 7.77 |
| COc1cccc([C@H]2O[C@H](CC(=O)N[C@@H](Cc3ccccc3)C(=O)O)C(=O)N(CC(C)(C)C)c3ccc(Cl)cc32)c1OC [Compound 4-15] | 134 to 136 | 7.72 |
| COc1cccc([C@H]2O[C@H](Cc3nnn[nH]3)C(=O)N(CC(C)(C)CO)c3ccc(Cl)cc32)c1OC [Compound 11, (3R, 5S)-7-Chloro-5-(2,3-dimethoxyphenyl)-1-(3-hydroxy-2,2-dimethylpropyl)-1,2,3,5-tetrahydro-3-[1H (or 3H)-tetrazol-5-yl]methyl-4,1-benzoxazepin-2-one] | 158 to 160 |  |
| CCS(=O)(=O)NC(=O)C[C@H]1O[C@H](c2cccc(OC)c2OC)c2cc(Cl)ccc2N(CC(C)(C)C)C1=O [Compound 17-4] | 135 to 140 | 8.03 |
| COc1cccc([C@H]2O[C@H](CC(=O)NS(C)(=O)=O)C(=O)N(CC(C)(C)COC(C)=O)c3ccc(Cl)cc32)c1OC [Compound 41, (3R,5S)-N-Methylsulfonyl-1-(3-acetoxy-2,2-dimethylpropyl)-7-chloro-5-(2,3-dimethoxyphenyl)-2-oxo-1,2,3,5-tetrahydro-4,1-benzoxazepine-3-acetamide] | 108 to 112 |  |
| COc1cccc([C@H]2O[C@H](Cc3nnn[nH]3)C(=O)N(CC(C)(C)C)c3ccc(Cl)cc32)c1OC [Compound 9, (3R, 5S)-7-Chloro-5-(2,3-dimethoxyphenyl)-1-neopentyl-1,2,3,5-tetrahydro-3-(tetrazol-5-yl)methyl-4,1-benzoxazepin-2-one sodium salt] |  | 8.02 |
| COc1cccc([C@H]2O[C@H](CC(=O)NS(C)(=O)=O)C(=O)N(CC(C)(CO)CO)c3ccc(Cl)cc32)c1OC [Compound 20, (3R,5S)-N-methylsulfonyl-7-chloro-5-(2,3-dimethoxyphenyl)-1-(3-hydroxy-2-hydroxymethyl-2-methylpropyl)-2-oxo-1,2,3,5-tetrahydro-4,1-benzoxazepine-3-acetamide] |  | 7.32 |
| CCOP(=O)(CNC(=O)C[C@H]1O[C@H](c2cccc(OC)c2OC)c2cc(Cl)ccc2N(CC(C)(C)CO)C1=O)OCC | 138 to 140 |  |
| COc1cccc([C@H]2O[C@H](CC(=O)NCP(=O)(O)O)C(=O)N(CC(C)(C)CO)c3ccc(Cl)cc32)c1OC [Compound 27, (3R,5S)-N-phosphonomethyl-7-chloro-5-(2,3-dimethoxyphenyl)-1-(3-hydroxy-2,2-dimethylpropyl)-2-oxo-1,2,3,5-tetrahydro-4,1-benzoxazepine-3-acetamide] |  | 7.70 |
| COc1cccc([C@H]2O[C@H](CC(=O)N3CCC(C(=O)O)CC3)C(=O)N(CC(C)(C)CO)c3ccc(Cl)cc32)c1OC [Compound 13-2] |  | 7.74 |
